# The source made the active and inactive calls.
# Experiments:
# [1] = tested on: Streptococcus sp. 'group A'; assay: growth inhibition of control SK(-) GAS strain, dose response, counter-screen for streptokinase expression inhibitor project, luminescence, kanamycin, BacTiterGlo, confirmation (AID 1900); type: functional, organism-based
# [2] = cytotoxicity toward DRD oncogenic fibroblasts, dose response, cell-based, non-viral oncogenic, luminescence (AID 1934); type: functional; conditions: Homo sapiens
# Streptococcus = assay: Group A Streptococcus viability loss, dose response, counter-screen for streptokinase expression inhibitor project, luminescence, BacTiterGlo (AID 1915); type: functional, organism-based;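 note: potency for reduction of bacterial viability or growth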
# Galanin receptor type 3 = target: T1, Galanin receptor type 3 (Homo sapiens, UniProt O60755); assay: Fluorescence-based cell-based primary high throughput dose response assay to identify antagonists of the Galanin Receptor 3 (GalR3).; type: functional
# T1 sequence (O60755 whole entry): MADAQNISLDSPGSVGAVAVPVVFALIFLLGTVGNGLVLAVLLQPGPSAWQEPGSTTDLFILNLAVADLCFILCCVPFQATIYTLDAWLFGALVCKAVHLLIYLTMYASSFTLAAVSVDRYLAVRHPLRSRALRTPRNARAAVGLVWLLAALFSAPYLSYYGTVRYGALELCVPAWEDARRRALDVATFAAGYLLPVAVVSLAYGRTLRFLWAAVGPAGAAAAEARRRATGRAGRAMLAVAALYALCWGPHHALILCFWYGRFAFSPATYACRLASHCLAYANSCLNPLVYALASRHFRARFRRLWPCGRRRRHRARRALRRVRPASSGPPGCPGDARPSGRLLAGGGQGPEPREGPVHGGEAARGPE
# [3] = ZM109 Env clade C HIV-1 fusion inhibitors, dose response, HeLa effector, CEM target cells, luciferase, cherry-pick (AID 652058); type: functional, cell-based
# [4] = HEK293T cytotoxicity, dose response, cytotoxicity control for miR-122 modulator project, cell-based, activator set, cherry-pick (AID 720690); type: functional;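 note: HEK293T human cells scored for general mammalian cytotoxicity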
# [5] = microbe, parasite or virus in culture; type: functional; conditions: Mycobacterium tuberculosis
# [6] = target: Peroxisome proliferator-activated receptor gamma/Nuclear receptor corepressor 2 (Homo sapiens, UniProt P37231+Q9Y618); type: functional
# [7] = target: Protein-arginine deiminase type-4 (Homo sapiens, UniProt Q9UM07); assay: human PAD4 inhibitor potency, dose response, biochemical, fluorescence readout (AID 492970)
# [8] = Shn3 3'UTR reporter inhibitors, dose response, cell-based, Clone20 osteoblasts, firefly luciferase, cherry-picked (AID 624132); type: functional;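 note: firefly luciferase luminescence from reporter carrying the Shn3 3'UTR in osteoblasts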
# [9] = control 3'UTR Renilla luciferase suppression, dose response, counter-screen for Shn3 inhibitor project, cell-based, Clone20-Shn3RL, cherry-picked (AID 624133); type: functional
# [10] = inhibitors of PGC1a acetylation in cells, dose response, cell-based, cherry-picked samples (AID 720514); type: functional;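 note: potency may reflect raised or lowered acetylation signal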
# [11] = A549 cell cytotoxicity, dose response, cytotoxicity control, plate reader, cherry-pick, antagonist series (AID 743412); type: functional, cell-based
# [12] = HepG2 cell cytotoxicity, dose response, cytotoxicity control, plate reader, cherry-pick, antagonist series (AID 743416); type: functional, cell-based
# [13] = LGR2 antagonists, dose response, cell-based, HEK293, CRE-luciferase reporter, cherry pick, set 2 (AID 743343); type: functional;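 note: transfected cells were stimulated with diluted bursicon conditioned medium after compound addition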
# [14] = target: T2, RNA-binding protein pos-1 (Caenorhabditis elegans, UniProt G5EF15); assay: inhibitors of POS-1/mex-3 RNA binding, dose response, biochemical, fluorescence polarization (AID 1964);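 note: purified POS-1 fused to maltose binding protein made in E. coli; potency of compounds blocking POS-1 binding to fluorescent RNA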
# T2 sequence (G5EF15 whole entry): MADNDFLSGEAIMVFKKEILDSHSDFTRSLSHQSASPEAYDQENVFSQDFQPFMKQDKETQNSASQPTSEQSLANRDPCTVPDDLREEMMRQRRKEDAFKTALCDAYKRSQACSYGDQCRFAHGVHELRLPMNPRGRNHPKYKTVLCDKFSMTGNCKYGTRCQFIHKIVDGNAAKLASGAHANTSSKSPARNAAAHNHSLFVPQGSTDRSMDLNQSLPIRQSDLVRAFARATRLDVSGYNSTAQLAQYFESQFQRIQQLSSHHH
# Sequence of Protein-arginine deiminase type-4 (Q9UM07 whole entry): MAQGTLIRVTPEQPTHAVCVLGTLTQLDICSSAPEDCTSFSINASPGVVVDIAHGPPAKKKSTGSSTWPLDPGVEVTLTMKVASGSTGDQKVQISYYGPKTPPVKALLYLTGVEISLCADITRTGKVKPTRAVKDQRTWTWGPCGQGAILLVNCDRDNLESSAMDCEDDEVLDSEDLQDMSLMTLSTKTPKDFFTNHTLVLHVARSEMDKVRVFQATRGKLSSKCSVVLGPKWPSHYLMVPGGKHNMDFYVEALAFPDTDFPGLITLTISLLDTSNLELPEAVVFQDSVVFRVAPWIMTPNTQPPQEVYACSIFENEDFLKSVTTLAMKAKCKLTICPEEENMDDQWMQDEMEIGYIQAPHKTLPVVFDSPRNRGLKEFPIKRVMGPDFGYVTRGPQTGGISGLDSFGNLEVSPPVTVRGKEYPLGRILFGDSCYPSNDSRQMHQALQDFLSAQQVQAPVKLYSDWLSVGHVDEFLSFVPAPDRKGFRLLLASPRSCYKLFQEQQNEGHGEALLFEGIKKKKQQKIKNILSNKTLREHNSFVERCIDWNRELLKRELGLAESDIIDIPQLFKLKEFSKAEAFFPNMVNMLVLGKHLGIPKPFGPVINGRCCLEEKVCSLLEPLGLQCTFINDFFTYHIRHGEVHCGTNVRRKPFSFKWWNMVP
# Sequence of Peroxisome proliferator-activated receptor gamma/Nuclear receptor corepressor 2 (P37231 whole entry): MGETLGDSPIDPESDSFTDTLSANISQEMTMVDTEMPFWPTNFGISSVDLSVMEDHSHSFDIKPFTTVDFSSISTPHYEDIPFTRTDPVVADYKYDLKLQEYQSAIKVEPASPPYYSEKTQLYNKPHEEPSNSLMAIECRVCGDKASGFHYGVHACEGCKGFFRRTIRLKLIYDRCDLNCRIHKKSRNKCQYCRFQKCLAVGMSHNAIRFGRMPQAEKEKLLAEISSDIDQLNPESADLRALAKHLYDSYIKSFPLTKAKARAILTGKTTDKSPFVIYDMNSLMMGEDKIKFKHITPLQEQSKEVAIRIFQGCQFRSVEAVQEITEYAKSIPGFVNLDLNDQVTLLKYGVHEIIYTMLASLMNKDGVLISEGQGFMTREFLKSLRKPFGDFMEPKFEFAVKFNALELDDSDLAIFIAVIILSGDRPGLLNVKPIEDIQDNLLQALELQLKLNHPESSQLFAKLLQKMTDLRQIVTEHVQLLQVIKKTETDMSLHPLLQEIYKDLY
# Sequence of Peroxisome proliferator-activated receptor gamma/Nuclear receptor corepressor 2 (Q9Y618 whole entry): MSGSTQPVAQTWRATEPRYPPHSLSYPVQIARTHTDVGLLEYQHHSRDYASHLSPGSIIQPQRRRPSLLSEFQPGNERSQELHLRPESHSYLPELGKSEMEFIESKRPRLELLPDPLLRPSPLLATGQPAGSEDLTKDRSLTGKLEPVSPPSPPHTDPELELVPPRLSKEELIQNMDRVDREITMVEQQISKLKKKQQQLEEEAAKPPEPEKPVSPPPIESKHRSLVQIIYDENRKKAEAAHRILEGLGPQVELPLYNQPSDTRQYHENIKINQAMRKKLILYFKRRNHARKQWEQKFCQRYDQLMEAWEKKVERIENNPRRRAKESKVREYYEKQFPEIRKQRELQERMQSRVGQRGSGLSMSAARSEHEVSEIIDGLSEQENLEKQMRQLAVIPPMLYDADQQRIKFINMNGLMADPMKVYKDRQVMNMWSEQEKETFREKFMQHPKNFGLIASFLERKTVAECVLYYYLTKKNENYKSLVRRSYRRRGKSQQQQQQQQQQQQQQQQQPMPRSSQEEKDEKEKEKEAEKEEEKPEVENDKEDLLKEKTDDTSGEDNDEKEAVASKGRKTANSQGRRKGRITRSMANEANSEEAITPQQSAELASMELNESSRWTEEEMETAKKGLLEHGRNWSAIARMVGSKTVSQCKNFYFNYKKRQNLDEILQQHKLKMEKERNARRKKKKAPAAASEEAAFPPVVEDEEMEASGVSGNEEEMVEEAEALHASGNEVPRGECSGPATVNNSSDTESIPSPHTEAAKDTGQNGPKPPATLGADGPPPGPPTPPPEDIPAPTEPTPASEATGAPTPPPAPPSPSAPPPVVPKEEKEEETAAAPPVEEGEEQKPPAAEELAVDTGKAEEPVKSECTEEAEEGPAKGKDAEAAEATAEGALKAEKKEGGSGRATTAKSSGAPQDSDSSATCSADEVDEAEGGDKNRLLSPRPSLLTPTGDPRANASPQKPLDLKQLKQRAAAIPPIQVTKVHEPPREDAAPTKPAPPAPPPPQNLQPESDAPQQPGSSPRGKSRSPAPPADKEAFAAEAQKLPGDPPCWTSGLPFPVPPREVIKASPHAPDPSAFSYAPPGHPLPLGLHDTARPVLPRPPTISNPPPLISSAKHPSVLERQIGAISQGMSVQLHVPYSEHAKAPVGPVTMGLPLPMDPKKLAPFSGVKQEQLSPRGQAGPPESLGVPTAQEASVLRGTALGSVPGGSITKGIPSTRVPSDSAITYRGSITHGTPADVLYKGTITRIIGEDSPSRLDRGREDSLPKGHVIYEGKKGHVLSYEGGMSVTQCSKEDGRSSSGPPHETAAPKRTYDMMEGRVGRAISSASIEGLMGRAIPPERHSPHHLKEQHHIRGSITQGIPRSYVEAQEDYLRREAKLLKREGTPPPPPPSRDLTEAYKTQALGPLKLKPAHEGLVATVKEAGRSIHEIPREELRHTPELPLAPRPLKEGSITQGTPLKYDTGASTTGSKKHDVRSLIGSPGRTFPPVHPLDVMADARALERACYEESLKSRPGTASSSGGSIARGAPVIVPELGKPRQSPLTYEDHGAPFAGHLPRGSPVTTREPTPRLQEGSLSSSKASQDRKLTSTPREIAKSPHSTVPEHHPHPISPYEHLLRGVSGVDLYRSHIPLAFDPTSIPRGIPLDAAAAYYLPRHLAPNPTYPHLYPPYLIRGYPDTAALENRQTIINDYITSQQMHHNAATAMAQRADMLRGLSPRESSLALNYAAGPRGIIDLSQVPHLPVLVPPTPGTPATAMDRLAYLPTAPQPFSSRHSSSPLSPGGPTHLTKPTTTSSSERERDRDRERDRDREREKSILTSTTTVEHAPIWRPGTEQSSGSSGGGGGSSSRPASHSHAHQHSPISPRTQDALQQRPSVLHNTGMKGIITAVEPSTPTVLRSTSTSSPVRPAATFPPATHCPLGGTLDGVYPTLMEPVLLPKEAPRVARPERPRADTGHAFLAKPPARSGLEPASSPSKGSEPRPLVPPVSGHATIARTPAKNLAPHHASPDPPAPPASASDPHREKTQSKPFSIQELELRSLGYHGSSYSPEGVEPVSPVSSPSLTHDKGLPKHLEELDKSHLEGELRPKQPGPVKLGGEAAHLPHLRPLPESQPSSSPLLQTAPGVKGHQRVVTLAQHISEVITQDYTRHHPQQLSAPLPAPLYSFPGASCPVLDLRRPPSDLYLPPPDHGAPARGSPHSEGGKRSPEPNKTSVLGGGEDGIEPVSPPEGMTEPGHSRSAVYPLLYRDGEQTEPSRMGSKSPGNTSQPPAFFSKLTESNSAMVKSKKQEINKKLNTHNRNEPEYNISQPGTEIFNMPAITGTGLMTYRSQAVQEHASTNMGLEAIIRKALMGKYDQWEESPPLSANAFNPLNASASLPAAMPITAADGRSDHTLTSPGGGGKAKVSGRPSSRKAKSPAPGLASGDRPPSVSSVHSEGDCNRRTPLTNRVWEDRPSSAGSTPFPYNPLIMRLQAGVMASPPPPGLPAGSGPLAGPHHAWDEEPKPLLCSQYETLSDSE
compound,measurement,setting,value
CCCCCCCCCCn1c2c(c(=N)c3c1CCC3)CCC2,EC50,[1],5.58 µM (active)
same,EC50,[2],3.44 µM (inconclusive)
same,EC50,Streptococcus,8.86 µM (active)
same,IC50,Galanin receptor type 3,> 1.11 µM (active)
same,AC50,[3],1.7 µM (active)
same,AC50,[4],6.56 µM (active)
Cn1nc(-c2ccccn2)nc2c(=O)n(C)c(=O)nc1-2,CC50,[5],> 40 µM (active)
same,IC50,[6],4.69 µM (active)
same,IC50,[7],21 µM (inactive)
same,AC50,[8],0.493 µM (active)
same,AC50,[9],2.96 µM (active)
same,AC50,[10],3.15 µM (active)
same,AC50,[11],3.15 µM (active)
same,AC50,[12],2.42 µM (active)
same,AC50,[13],2.57 µM (active)
COc1ccc(NS(=O)(=O)c2ccc3c(c2)[C@H]2C=CC[C@H]2[C@@H](c2ccc(C(=O)O)cc2)N3)cc1,EC50,[14],14.3 µM (inconclusive)

# Source: ChEMBL document CHEMBL1201862, “PubChem BioAssay data set” (2004)
